A word on the EC50: it is the concentration needed to bring the measured effect to its halfway point.

Where only a bound is given, the exact number is not on record here.

The values that follow come from patent US10308617B2, “Triazole benzamide derivatives and the compositions and methods of treatment regarding the same” (An2H Discovery Limited, priority 2016, dated 2019).

The target of the first assay is T1, Parkin ligase (Homo sapiens, UniProt O60260).
T1 sequence (O60260 1-465): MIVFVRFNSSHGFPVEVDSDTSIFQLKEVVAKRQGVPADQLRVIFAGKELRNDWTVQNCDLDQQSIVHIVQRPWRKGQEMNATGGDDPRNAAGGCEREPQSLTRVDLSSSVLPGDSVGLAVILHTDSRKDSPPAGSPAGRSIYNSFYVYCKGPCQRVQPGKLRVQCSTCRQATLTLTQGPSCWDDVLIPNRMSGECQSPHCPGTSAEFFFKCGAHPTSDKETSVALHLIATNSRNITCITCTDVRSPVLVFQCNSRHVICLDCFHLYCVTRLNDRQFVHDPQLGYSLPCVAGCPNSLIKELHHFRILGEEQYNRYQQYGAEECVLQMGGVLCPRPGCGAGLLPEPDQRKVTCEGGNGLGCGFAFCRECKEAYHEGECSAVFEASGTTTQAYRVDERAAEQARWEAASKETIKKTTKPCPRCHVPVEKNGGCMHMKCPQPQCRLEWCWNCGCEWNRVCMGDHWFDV
As to the kind of experiment: Activity-Based Probe Assay using an Ubiquitin vinyl sulfone probe (TR-FRET).
Conditions: not given
The format is biochemical. Here is the method:
An Ubiquitin vinyl sulfone probe can be used that irreversibly binds to the active site cysteine of Parkin ligase. Covalent attachment of the probe to the Parkin can be monitored by TR-FRET. Candidate activator compounds can be identified by increasing the activity of Parkin ligase due to an increase in TR-FRET signal. Screening for activating compounds can be distinguished from the controls as follows: • 100% activation signal=Heat activated Parkin+100 nM control activator in DMSO. • 0% activation signal=Heat activated Parkin+DMSO only. • Parkin activators can be identified by an increase of the 0% activation signal TR-FRET signal.
• Assay Plate: White 384 well plate (Corning 3572) • Enzyme: Parkin-His tagged 203 μM (10.5 mg/ml) • Probe: Ubiquitin vinyl-sulfone (HA-Ub-VS Boston Biochem U-212) • DMSO: DMSO (Sigma cat # D4540-100ML) • Reaction Buffer: 50 mM HEPES (pH 8.5), 150 mM NaCl, 0.01% Tween 20, 0.1% BSA • Detection Buffer: 50 mM HEPES (pH 8.5), 150 mM NaCl, 0.01% Tween 20, 0.1% BSA, 800 mM KF • Detection Reagent A: 2.6 nM Anti-6HIS-Eu cryptate and 40 nM Anti-HA-XL665 in detection buffer • Eu cryptate: Anti-6HIS-Eu cryptate (CisBio 61HISKLA) • XL665: Anti-HA-XL665 (CisBio 610HAXLA) Enzyme Reaction (15 min pre incubation Parkin with activator only) • Parkin: 40 nM • HA-Ub-VS Probe: 70 nM • Activator/DMSO: 2× Activator/2% DMSO • Reaction time: 60 minutes • Temperature: 22° C. • Total volume: 10 μl reaction Detection Reaction • Take 10 μl of Enzyme Reaction above and add 10 μl detection Reagent A under the following conditions: • Reaction time: 60 minutes • Temperature: 22° C. • Total volume: 20 μl
Assay procedure (Using HP D-300 compound dispenser and Bravo for the operation): • 1) Heat activate Parkin in reaction buffer (500 μl/1.5 ml tube: Eppendorf Thermomixer 5 minutes, 400 rpm at 58° C. and put on ice until needed). • 2) Load assay plate wells with 4.8 μl 84.5 nM Parkin in reaction buffer by use of Bravo. • 3) Deliver 0.2 μl 200× activator candidates in DMSO by use of HP D-300 compound dispenser. Highest 200× concentration=[…] and then twofold dilutions. • 4) Spin 1000 rpm, 2 minutes, at room temp. • 5) Incubate plate for 15 minutes at room temp. • 6) Add 5 μl 140 nM HA-Ub-VS Probe in reaction buffer by use of Bravo. • 7) Spin 1000 rpm, 2 minutes, at room temp. • 8) Incubate plate for 60 minutes at room temp. • 9) Add 10 μl 2.6 nM Anti-6HIS-Eu cryptate and 40 nM Anti-HA-XL665 in detection buffer. • 10) Spin 1000 rpm, 2 minutes, at room temp. • 11) Incubate plate for 60 minutes at room temp. • 12) Read plates on Perkin Elmer Envision instrument with the following parameters: • LANCE dual laser protocol loaded into the Envision® software • Top Mirror: LANCE/DELFIA Duel/Bias (Bar code 446) • Emission Filter: APC 665 EM (Bar code 205) • 2nd Emission Filter: Europium 615 EM (Bar code 203) • Read 655 nm (channel 1) and 615 nm (channel 2) wavelengths on Envision®
Data Analysis: The Data can be read in CSV files. There are two tables in those CSV files, which are the values of 655 nm (channel 1) and 615 nm (channel 2) wavelengths respectively. The data is converted to an HTRF Ratio=(Channel 1/Channel 2)*10,000
The average of all the 0 uM controls (DMSO only)=BKGD (Background—0% activation). Subtract BKGD from each HTRF Ratio value=HTRF-BKGD. The average of all the […] 100 nM control activator in DMSO controls=Max (100% activation). The following equation is then used to calculate % Activation for each well/candidate as follows: % Activation=(HTRF-BKGD/Max)*100.
Graphpad Prisim was used with Transform X values: X=Log(X) and nonlinear regression (dose-response-stimulation): Log(agonist) vs Response—variable slope (four parameters) with constrains set to Bottom=0 and Top=100.
The Activity-Based Probe Assay was performed with various compounds in Tables 1-3.
Turning to `O=C(Nc1nc(NC(=O)c2ccccc2)n(-c2ccccc2)n1)c1ccccc1` [Compound A, N,N′-(1-phenyl-1H-1,2,4-triazole-3,5-diyl)dibenzamide], the “Parkin Ligase reaction with the Activity-based Ubiquitin vinyl sulfone probe” value is listed as “increases”.

As for `O=C(/C=C/c1ccccc1)Nc1nc(NC(=O)c2ccccc2)nn1-c1ccccc1` [Compound C, N-(5-cinnamamido-1-phenyl-1H-1,2,4-triazol-3-yl)benzamide], the “Parkin Ligase reaction with the Activity-based Ubiquitin vinyl sulfone probe” value was “increases”.

The same assay, now with this note: Parkin activation, HA-Ub-VS probe, heat activated Parkin; read-out: Probe Assay EC50 (μM) [Example 2].
With `O=C(Nc1nc(Nc2cc(N3CCCC3)nc3ccccc23)n(-c2ccccc2)n1)c1ccccc1` [Compound A1], the half-maximal effective concentration (EC50) is greater than 100 µM. Take `O=C(Nc1nc(NC(=O)c2cc3ccccc3s2)n(-c2ccccc2)n1)c1ccccc1` [Compound A2]: the concentration for a half-maximal effect (EC50) worked out at 50 µM.

With `O=C(Nc1nc(NC(=O)c2ccccc2)n(-c2ccccc2)n1)c1ccccc1` [Compound A, N,N′-(1-phenyl-1H-1,2,4-triazole-3,5-diyl)dibenzamide], the EC50 was determined as 7 µM. Consider `O=C(Nc1nc(Nc2nc(N3CCCC3)c3ccccc3n2)n(-c2ccccc2)n1)c1ccccc1` [Compound B1], for which the 50% effective concentration (EC50) was greater than 100 µM. Consider `O=C(Nc1nc(NC(=O)c2ccc3ccccc3n2)n(-c2ccccc2)n1)c1ccccc1` [Compound B2], for which the EC50 was determined as 4 µM. On the same count and under the same terms, the figure for `CC(=O)Nc1nc(NC(C)=O)n(-c2ccccc2)n1` [Compound B] is greater than 100 µM. Regarding `O=C(Nc1nc(Nc2ncnc3ccccc23)n(-c2ccccc2)n1)c1cccs1` [Compound C1], the 50% effective concentration (EC50) was 3.7 µM. With `Cc1ccccc1C(=O)Nc1nc(NC(=O)/C=C/c2ccccc2)n(-c2ccccc2)n1` [Compound C2], the EC50 is 4 µM. `O=C(/C=C/c1ccccc1)Nc1nc(NC(=O)c2ccccc2)nn1-c1ccccc1` [Compound C, N-(5-cinnamamido-1-phenyl-1H-1,2,4-triazol-3-yl)benzamide]: the EC50 came to 15.1 µM. Still for that read-out and setting: the figure for `CN1CCC(C(=O)Nc2nc(Nc3ncnc4ccccc34)n(-c3ccccc3)n2)CC1` [Compound D1] is 38.9 µM. With `O=C(Nc1nc(NC(=O)c2ccccc2)n(-c2ccc3ccccc3n2)n1)c1ccccc1` [Compound D2], the EC50 turned out to be 89 µM. As for `O=C(Nc1nc(Nc2nc(O)nc3ccccc23)n(-c2ccccc2)n1)c1ccccc1` [Compound E1], the EC50 is greater than 100 µM. As for `O=C(Nc1nc(NC(=O)c2ccccc2)n(-c2ccc3c(c2)OCCO3)n1)c1ccccc1` [Compound E2], the EC50 was found to be 6 µM. `O=C(Nc1nc(NC(=O)c2ccccc2)n(-c2ccc(I)cc2)n1)c1ccccc1` [Compound E, N-[5-benzamido-1-(4-iodophenyl)-1,2,4-triazol-3-yl]benzamide]: the half-maximal effective concentration (EC50) was determined as 15.3 µM. `CCN(CC)c1cc(Nc2nc(NC(=O)c3ccccc3)nn2-c2ccccc2)ncn1` [Compound F1]: the 50% effective concentration (EC50) is greater than 100 µM. With `COc1ccc(-n2nc(NC(=O)c3ccccc3)nc2NC(=O)c2ccccc2)cc1` [Compound F2], the EC50 came out at 12 µM. In the case of `Cc1ccccc1C(=O)Nc1nc(NC(=O)c2ccccc2C)n(-c2ccccc2)n1` [Compound F, 2-methyl-N-[5-[(2-methylbenzoyl)amino]-1-phenyl-1,2,4-triazol-3-yl]benzamide], the EC50 came to 6.7 µM. Take `O=C(Nc1nc(Nc2cc(N3CCCC3)ncn2)n(-c2ccccc2)n1)c1ccccc1` [Compound G1]: the EC50 is greater than 100 µM.

With `O=C(Nc1nc(NC(=O)c2cccs2)nn1-c1ccccc1)c1ccccc1` [Compound G2], the EC50 was found to be 2 µM. On to `O=C(Nc1nc(Nc2ccncn2)n(-c2ccccc2)n1)c1ccccc1` [Compound H1], for which the concentration giving a half-maximal response (EC50) is greater than 100 µM. Regarding `Cc1ccccc1C(=O)Nc1nc(-c2ccccn2)nn1-c1ccc(OC(F)(F)F)cc1` [Compound H3], the 50% effective concentration (EC50) amounted to 3 µM.

Turning to `Cc1ccccc1C(=O)Nc1nc(NC(=O)c2ccccc2)n(-c2ccccc2)n1` [Compound H], the concentration giving a half-maximal response (EC50) was greater than 100 µM. Same read-out and setting: next, `O=C(Nc1nc(Nc2ccnc3ccccc23)n(-c2ccccc2)n1)c1ccccc1` [Compound I1]: greater than 100 µM.

`O=C(Nc1nc(NC(=O)c2ccccc2)n(C2CCOCC2)n1)c1ccccc1` [Compound I2]: the concentration for a half-maximal effect (EC50) was greater than 100 µM.

For the molecule `Nc1nc(Nc2nc(NC(=O)c3ccccc3)nn2-c2ccccc2)c2ccccc2n1` [Compound J1], the EC50 is greater than 100 µM. Still for that read-out and setting: next, `O=C(Nc1nc(NC(=O)c2ccccc2)n(-c2ccc3ncccc3c2)n1)c1ccccc1` [Compound J2]: 6 µM; `CC(C)C(=O)Nc1nc(Nc2ncnc3ccccc23)n(-c2ccccc2)n1` [Compound K1]: 9.2 µM. Consider `Cc1ccccc1C(=O)Nc1nc(NC(=O)c2cccs2)nn1-c1ccccc1` [Compound K2], for which the EC50 is 6 µM.

Regarding `Cc1ccccc1C(=O)Nc1nc(NC(=O)c2ccccc2)nn1-c1ccccc1` [Compound K, N-(5-benzamido-2-phenyl-1,2,4-triazol-3-yl)-2-methyl-benzamide], the EC50 came to 10.8 µM.

On to `C/C=C/C(=O)Nc1nc(Nc2ncnc3ccccc23)n(-c2ccccc2)n1` [Compound L1], for which the concentration giving a half-maximal response (EC50) came to 37 µM. Turning to `C=CC(=O)Nc1nc(NC(=O)c2ccccc2)nn1-c1ccccc1` [Compound L2], the concentration giving a half-maximal response (EC50) is greater than 100 µM.

For the molecule `O=C(Nc1nc(Nc2ncnc3ccccc23)n(-c2ccccc2)n1)c1ccccc1` [Compound L, N-[1-phenyl-5-(quinazolin-4-ylamino)-1,2,4-triazol-3-yl]benzamide], the concentration for a half-maximal effect (EC50) came to 1.8 µM.

For `C=C(C)C(=O)Nc1nc(Nc2ncnc3ccccc23)n(-c2ccccc2)n1` [Compound M1], the EC50 stood at 11.9 µM. Consider `O=C(Nc1nc(NC(=O)c2nc3ccccc3s2)n(-c2ccccc2)n1)c1ccccc1` [Compound M2], for which the concentration for a half-maximal effect (EC50) is greater than 100 µM. For `Nc1nc(Nc2nc(NC(=O)c3ccccc3)nn2-c2ccccc2)nc2ccccc12` [Compound N1], the EC50 was greater than 100 µM. As to `O=C(Nc1nc(Nc2nc(O)c3ccccc3n2)n(-c2ccccc2)n1)c1ccccc1` [Compound O1], the EC50 was 12.8 µM. As to `O=C(Nc1nc(NC(=O)c2ccccc2)n(-c2cccc3cccnc23)n1)c1ccccc1` [Compound O2], the 50% effective concentration (EC50) was greater than 100 µM.

`O=C(Nc1nc(NC(=O)c2ccccc2)n(-c2cccc3ncccc23)n1)c1ccccc1` [Compound P2]: the 50% effective concentration (EC50) is greater than 100 µM. For the molecule `Cc1ccccc1C(=O)Nc1nc(-c2ccccn2)nn1-c1ccccc1` [Compound Q2], the 50% effective concentration (EC50) is 26 µM. Turning to `Cc1ccccc1C(=O)Nc1nc(NC(=O)c2ccccc2C)n(-c2ccc(Cl)cc2)n1` [Compound Q3], the EC50 worked out at 4 µM. Take `Cc1ccccc1C(=O)Nc1nc(Nc2ncnc3ccccc23)n(-c2ccccc2)n1` [Compound R2]: the concentration for a half-maximal effect (EC50) was determined as 4 µM. For `Cc1ccc(-c2nc(NC(=O)c3ccccc3C)n(-c3ccccc3)n2)nc1` [Compound R3, 2-methyl-N-(3-(5-methylpyridin-2-yl)-1-phenyl-1H-1,2,4-triazol-5-yl)benzamide], the half-maximal effective concentration (EC50) worked out at 3 µM.
